{"source": "BindingDB's records for doi:10.1016/j.bmc.2009.03.040", "about": "(Institute For Medical Research, 2009)", "molecular_target": "T1, Lethal factor (Bacillus anthracis, UniProt P15917)", "T1 sequence (P15917 whole entry)": "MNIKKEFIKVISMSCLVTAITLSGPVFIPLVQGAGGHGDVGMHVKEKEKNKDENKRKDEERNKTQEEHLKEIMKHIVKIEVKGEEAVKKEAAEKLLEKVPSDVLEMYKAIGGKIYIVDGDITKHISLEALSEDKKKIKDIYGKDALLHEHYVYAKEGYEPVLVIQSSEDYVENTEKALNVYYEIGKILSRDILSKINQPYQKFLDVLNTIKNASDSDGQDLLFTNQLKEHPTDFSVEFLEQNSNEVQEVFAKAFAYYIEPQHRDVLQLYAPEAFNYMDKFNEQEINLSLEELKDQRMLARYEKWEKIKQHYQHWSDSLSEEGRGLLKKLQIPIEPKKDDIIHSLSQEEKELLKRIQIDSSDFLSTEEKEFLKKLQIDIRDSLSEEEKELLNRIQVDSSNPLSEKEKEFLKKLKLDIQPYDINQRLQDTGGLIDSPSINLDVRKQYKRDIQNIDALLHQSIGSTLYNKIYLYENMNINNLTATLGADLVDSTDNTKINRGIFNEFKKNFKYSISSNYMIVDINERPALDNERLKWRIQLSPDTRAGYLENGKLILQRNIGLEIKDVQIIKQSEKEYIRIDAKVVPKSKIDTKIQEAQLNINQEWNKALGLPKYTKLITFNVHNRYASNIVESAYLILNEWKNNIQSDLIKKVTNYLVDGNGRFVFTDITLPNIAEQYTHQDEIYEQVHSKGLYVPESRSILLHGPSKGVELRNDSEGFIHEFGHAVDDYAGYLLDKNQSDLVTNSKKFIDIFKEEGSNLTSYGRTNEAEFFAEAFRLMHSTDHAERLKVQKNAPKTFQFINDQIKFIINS", "experiment": "Inhibition of Bacillus anthracis lethal factor assessed as cleavage of MAPKK by fluorescence peptide cleavage assay", "data": [{"smiles": "COc1ccc(-c2ccc(S(=O)(=O)Nc3sccc3-c3nc4ccccc4s3)cc2)cc1", "note": "[N-(3-(benzo[d]thiazol-2-yl)thiophen-2-yl)-4'-methoxybiphenyl-4-sulfonamide]", "values": [{"measurement": "Ki", "value": 1, "unit": "µM"}]}]}
